We go through eleven compounds from US20150299120A1, “Spirohydantoin compounds and their use as selective androgen receptor modulators” (NOVARTIS AG, priority 2012, published 2015).

For one series, the target named is T1, androgen receptor (AR) (Homo sapiens, UniProt P10275).
T1 construct: transfecting C2C12 cells with a plasmid containing full-length AR; expressed in transfected cells; host or cells: mouse myoblastic C2C12 cells (ATCC CRL-1772), transiently transfected with AR-FL in pcDNA 3.1(+)
T1 sequence (P10275 1-920): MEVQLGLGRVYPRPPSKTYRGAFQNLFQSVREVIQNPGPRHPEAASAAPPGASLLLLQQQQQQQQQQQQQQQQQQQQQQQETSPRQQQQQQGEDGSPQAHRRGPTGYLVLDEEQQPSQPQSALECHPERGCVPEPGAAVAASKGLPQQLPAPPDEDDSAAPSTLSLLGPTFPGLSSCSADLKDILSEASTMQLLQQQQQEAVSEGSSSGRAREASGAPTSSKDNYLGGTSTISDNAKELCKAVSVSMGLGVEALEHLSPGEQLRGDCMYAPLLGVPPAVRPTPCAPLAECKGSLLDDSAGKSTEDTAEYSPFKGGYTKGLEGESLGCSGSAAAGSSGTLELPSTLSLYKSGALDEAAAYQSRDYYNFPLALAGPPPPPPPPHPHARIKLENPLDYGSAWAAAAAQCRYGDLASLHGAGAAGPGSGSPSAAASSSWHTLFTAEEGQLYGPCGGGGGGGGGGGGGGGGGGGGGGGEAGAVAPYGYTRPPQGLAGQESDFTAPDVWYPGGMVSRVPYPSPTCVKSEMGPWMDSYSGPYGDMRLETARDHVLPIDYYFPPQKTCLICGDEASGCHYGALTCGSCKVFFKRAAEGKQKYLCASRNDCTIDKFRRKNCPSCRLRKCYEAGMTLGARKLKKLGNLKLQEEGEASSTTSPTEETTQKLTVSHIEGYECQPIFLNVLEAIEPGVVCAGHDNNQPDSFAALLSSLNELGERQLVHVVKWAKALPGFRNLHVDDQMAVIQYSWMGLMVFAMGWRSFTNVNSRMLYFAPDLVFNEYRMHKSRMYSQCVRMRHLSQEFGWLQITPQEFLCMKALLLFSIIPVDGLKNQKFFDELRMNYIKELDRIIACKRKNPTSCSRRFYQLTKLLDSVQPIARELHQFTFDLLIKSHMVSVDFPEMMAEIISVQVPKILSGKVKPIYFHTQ
As to the kind of experiment: Test 1: androgen receptor transcriptional activation (2XIDR17-luciferase) assay in transfected C2C12 cells. Conditions: for % Biological activity (C2C12 cell) 100 nM / % Biological activity (C2C12 cell) 5 μM: C2C12 cells, relative to 1 μM DHT; for % Biological activity (C2C12 cell) 100 nM: compound at 100 nM; for % Biological activity (C2C12 cell) 5 μM: compound at 5 μM; for Emax: C2C12, C2C12 cells, percentage activity relative to 1 μM DHT, read-out: Biological activity (C2C12 cell) Emax % (converted); for EC50: mouse myoblastic C2C12 cells transfected with full-length AR and 2XIDR17-luciferase, read-out: Biological activity (C2C12 cell) EC50. It counts as cell-based. The procedure: A suitable assay to determine the ability of a ligand to transcriptionally activate androgen receptor (AR) is carried out using mouse myoblastic C2C12 cells. The assay involves transfecting C2C12 cells with a plasmid containing full-length AR along with an AR response element linked to luciferase (2XIDR17). The luminescence read-out at the end of the assay is measured using Victor 3 and is a direct measure of the transcriptional activity. The assay has been validated using the reference compound, BMS-564929, for which EC50 values have been reported in a similar set-up.
C2C12 cells were obtained from ATCC (Cat #CRL-1772) and maintained in DMEM modified to contain 4 mM L-glutamine, 4.5 g/L glucose, 1 mM sodium pyruvate and 1.5 g/L sodium bicarbonate and 10% FBS.
AR-FL in pcDNA 3.1(+) and 2XIDR17 in pGL4.26 plasmids prepared using Genelute plasmid miniprep kit from Sigma Cat #PLED35 Steadyglow Luciferase assay system Promega Cat #E2550
• C2C12 cells were seeded in a 96-well plate in DMEM (Dulbecco's Modified Eagle Medium) without phenol red and containing 10% CS-FBS (Charcoal-stripped Fetal Bovine Serum) at 8000 cells/well. • The next day, cells were transfected with an equimolar ratio of (Androgen Receptor-Full length) AR-FL and 2XIDR17-Luciferase at a total plasmid concentration of 200 ng/well using Lipofectamine 2000 following manufacturer's protocol. • For the transfection, 83 ng of AR-FL and 117 ng of 2XIDR17-Luciferase were in 12.5 μl of OptiMEM—Mix A. 0.4 μl of Lipofectamine 2000 was added to 12.5 μl of OptiMEM and incubated for 5 min at room temperature—Mix B. The two mixes A and B were mixed and incubated at room temperature for an additional fifteen minutes. An additional 50 μl of OptiMEM was added, gently mixed and this mixture was added to the cells in the 96-well plate. The above quantities are requirements per well of a 96-well plate. Master mixes were made for the entire plate, with proportional quantity of reagents being used. • 5 h after transfection, compounds were added to the wells in DMEM without phenol red and containing 10% CS-FBS, maintaining a final DMSO concentration of 0.5%. A typical dose response curve starts at 10 μM and includes a 7-point, log dilution, done in triplicates. • After overnight incubation with the compounds, 100 ul of working solution of Steadyglow reagent was added to the wells. • The plates were placed in a shaker for 15 min at the end of which the lysate containing luciferase was transferred to a white flat-bottom plate and read under a luminescence setting in Victor. • Background subtracted counts (Luminescence from DMSO control wells is considered the background) are used to calculate percentage activity, expressed relative to activity with 1 μM (Dihydrotestosterone) DHT (at least two sets of triplicates for 1 μM DHT are included per plate).
The EC50 curves for the compounds for 8 compound concentrations were fitted by the respective function using non-linear least-squares regression in Graphpad Prism 4.0 (Graphpad Software, San Diego, Calif., USA).

For `Cc1noc(C)c1CN1C(=O)N(c2ccc(C#N)c(Cl)c2C)C(=O)C12CCCC2` [Example 8.3, 2-chloro-4-(1-((3,5-dimethylisoxazol-4-yl)methyl)-2,4-dioxo-1,3-diazaspiro[4.4]nonan-3-yl)-3-methylbenzonitrile], the melting point (as a rule, the temperature, or range, at which the solid turns liquid) was 109 °C. Also, at androgen receptor (AR), the “% Biological activity (C2C12 cell) 100 nM” value is 3% and the “% Biological activity (C2C12 cell) 5 μM” value worked out at 19%.

`Cc1c(N2C(=O)N(C)C3(CCCC3)C2=O)ccc(C#N)c1Cl` [Example 3.0, 2-chloro-3-methyl-4-(1-methyl-2,4-dioxo-1,3-diazaspiro[4.4]nonan-3-yl)benzonitrile] showed a melting point of 154 °C. Besides, on androgen receptor (AR), the Emax – broadly, the maximal effect, on the per cent scale that the assay sets – was 100% and the EC50 (commonly the concentration that produces a half-maximal response) was 0.41 nM.

`COCCN1C(=O)N(c2ccc(C#N)c(Cl)c2C)C(=O)C12CCCC2` [Example 3.1, 2-chloro-4-(1-(2-methoxyethyl)-2,4-dioxo-1,3-diazaspiro[4.4]nonan-3-yl)-3-methylbenzonitrile]: the melting point came out at 115 °C. On androgen receptor (AR), the Emax was 96% and the concentration for a half-maximal effect (EC50) was determined as 105 nM.

For `Cc1c(N2C(=O)N(C)C3(CCC(=O)C3)C2=O)ccc(C#N)c1Cl` (centres unmarked) [Example 6.2, 2-chloro-3-methyl-4-(1-methyl-2,4,7-trioxo-1,3-diazaspiro[4.4]nonan-3-yl)benzonitrile], the melting point was determined as 219 °C. In addition, at androgen receptor (AR), the “% Biological activity (C2C12 cell) 100 nM” value is given as 9% and the “% Biological activity (C2C12 cell) 5 μM” value is 29%.

`Cc1c(N2C(=O)N(CC(C)C)C3(CCCC3)C2=O)ccc(C#N)c1Cl` [Example 9.5, 2-chloro-4-(1-isobutyl-2,4-dioxo-1,3-diazaspiro[4.4]nonan-3-yl)-3-methylbenzonitrile]: the melting point stood at 115 °C. Besides, on androgen receptor (AR), the “% Biological activity (C2C12 cell) 100 nM” value is 11% and the “% Biological activity (C2C12 cell) 5 μM” value was 74%.

In turn, `Cc1c(N2C(=O)N(C)C3(CCC(F)(F)C3)C2=O)ccc(C#N)c1Cl` (centres unmarked) [Example 6.3, 2-chloro-4-(7,7-difluoro-1-methyl-2,4-dioxo-1,3-diazaspiro[4.4]nonan-3-yl)-3-methylbenzonitrile] yielded a melting point of 184 °C. In addition, at androgen receptor (AR), the Emax is 63% and the EC50 worked out at 14.9 nM.

`CCN1C(=O)N(c2ccc(C#N)c(Cl)c2C)C(=O)C12CCCC2` [Example 3.2, 2-chloro-4-(1-ethyl-2,4-dioxo-1,3-diazaspiro[4.4]nonan-3-yl)-3-methylbenzonitrile] showed a melting point of 94 °C. On androgen receptor (AR), the Emax was 83% and the EC50 was 23.5 nM.

In turn, `Cc1c(N2C(=O)N(C)C3(CCCC3CO)C2=O)ccc(C#N)c1Cl` (centres unmarked) [Example 1.6, 2-chloro-4-(6-(hydroxymethyl)-1-methyl-2,4-dioxo-1,3-diazaspiro[4.4]nonan-3-yl)-3-methylbenzonitrile] had a melting point of 157 °C. At androgen receptor (AR), the “% Biological activity (C2C12 cell) 100 nM” value is given as 28% and the “% Biological activity (C2C12 cell) 5 μM” value is 75%.

For `Cc1c(N2C(=O)N(Cc3ccncc3)C3(CCCC3)C2=O)ccc(C#N)c1Cl` [Example 8.5, 2-chloro-4-(2,4-dioxo-1-(pyridin-4-ylmethyl)-1,3-diazaspiro[4.4]nonan-3-yl)-3-methylbenzonitrile], the melting point came to 76 °C. In addition, the EC50 at androgen receptor (AR) was 30.7 nM.

In turn, `Cc1c(N2C(=O)N(CCO)C3(CCCC3)C2=O)ccc(C#N)c1Cl` [Example 9.7, 2-chloro-4-(1-(2-hydroxyethyl)-2,4-dioxo-1,3-diazaspiro[4.4]nonan-3-yl)-3-methylbenzonitrile] showed a melting point of 98 °C. Further, on androgen receptor (AR), the Emax is 76% and the EC50 stood at 199 nM.

In turn, `Cc1c(N2C(=O)N(CC3CCOC3)C3(CCCC3)C2=O)ccc(C#N)c1Cl` (centres unmarked) [Example 11.0, 2-chloro-4-(2,4-dioxo-1-((tetrahydrofuran-3-yl)methyl)-1,3-diazaspiro[4.4]nonan-3-yl)-3-methylbenzonitrile] displayed a melting point of 70 °C. In addition, on androgen receptor (AR), the “% Biological activity (C2C12 cell) 100 nM” value is on record as 25% and the “% Biological activity (C2C12 cell) 5 μM” value is reported as 48%.
